Assay results from PMC6753678, “Fueling Open Innovation for Malaria Transmission-Blocking Drugs: Hundreds of Molecules Targeting Early Parasite Mosquito Stages” (Frontiers in Microbiology, 2019).
Where two headings read alike, the source gives them in different places.

Legend:
[1] = system: 3D7-strain P. falciparum asexual parasites; test: P. falciparum asexual growth inhibition assay (Pf GIA); assay type: cell-based, Plasmodium falciparum; conditions: dose response confirmation; read-out: Pf asexual growth inhibition assays IC50
Procedure: The asexual activity of active compounds was tested in dose response with parasite lactate dehydrogenase (LDH) activity used as a readout of parasite viability as described in [Gamo et al. (2010)]. Briefly, 3D7-strain P. falciparum asexual parasites were diluted to 0.25% parasitemia, 2% hematocrit in culture medium composed of RPMI medium with 25 mM HEPES, 2% D-sucrose, 0.3% L-glutamine, 150 μM hypoxanthine plus 5% albumax. 25 μl of parasite inoculum was then dispensed into each well of a 384 well plate containing test compounds and positive (50 μM chloroquine) and negative (DMSO) controls. Plates were incubated for 72 h at 37°C in a 5% CO2, 5%O2, 90% N2 environment before being frozen at −70°C. Plates were then thawed and 70 μl of reaction mix (143 mM sodium L-lactate, 143 mM 3-acetyl pyridine adenine dinucleotide, […] Nitro Blue tetrazolium chloride, […] diaphorase (2.83 U/ml), 0.7% Tween 20, 100 mM Tris–HCl pH 8.0) was added to each well using a Multidrop Combi automated dispenser. Plates were shaken to mix and then absorbance at 650 nm was measured after 10 min incubation at room temperature. Percent inhibition of asexual growth was then calculated with respect to positive and negative controls. Data presented is the mean of three independent biological replicates.

HepG2 cells = test: HepG2 cytotoxicity assay; conditions: for IC50: read-out: HepG2 cytotoxicity assay IC50, dose response confirmation; for Unified cytotox: unified HepG2 value across the three screens; for Pb ODA (this manuscript) HepG2 cytoxicity: HepG2 cytotoxicity listed with the Pb ODA data set (this manuscript)
Procedure: Briefly, HepG2 cells were seeded onto compound-treated 384 well plates at a density of 2,500 cells per well in Minimal Essential Medium (MEM) plus 10% fetal bovine serum and 1% non-essential amino acids solution (NEAA). Cells were incubated with test compounds or 50 μM doxorubicin (positive) and DSMO (negative) controls at 37°C for 48 h in a humidified 5% CO2 atmosphere. […] Cell viability was then measured in a fluorescent plate reader and percent inhibition calculated with respect to positive and negative controls.

[2] = system: P. berghei ookinete development; conditions: for % inhibition, Replicate A / % inhibition, Replicate B: primary screen at 1 μM
[3] = read-out: Pb ODA IC50, this manuscript
[4] = read-out: Pb Ookinete development assay IC50, dose response confirmation
[5] = read-out: Pb ODA (this manuscript) IC50, P. berghei ookinete development assay, this manuscript

SMILES | IC50 [1] [µM] | IC50 (HepG2 cells) [µM] | Unified cytotox (HepG2 cells) [µM] | Is compound selective in assay? Pb ODA active? ([2]; 1: YES, 0: NO) | % inhibition, Replicate A [2] [%] | % inhibition, Replicate B [2] [%] | IC50 [2, 3] [µM] | IC50 [2, 4] [µM] | Pb ODA (this manuscript) HepG2 cytoxicity (HepG2 cells) [µM] | Is compound selective in assay? Pb ODA active? [2] | IC50 [2, 5] [µM]
CC(C)CN1CCN(c2nc(C#N)c3c(c2C(=S)NC2CCCCC2)CC(C)(C)OC3)CC1 [TCMDC-124173] | 0.415 | 100 | 100.00 | 1 (1: YES) | 37.56 | 54.94 | 4.89 | 4.89 |  |  | 
COc1ccc(C=NNc2nc(O)cc(-c3ccccc3)n2)cc1OC [TCMDC-124217] | 0.63 | 58.2 | 58.21 | 1 (1: YES) | 58.99 | 66.09 | 0.5 | 0.497 |  |  | 
COc1cc(OC)nc(C(Sc2ccc(NC(=O)c3cccs3)cc2)c2ccccc2)n1 (stereo not shown) [TCMDC-124257] | 0.184 | 100 | 100.00 | 1 (1: YES) | 29.98 | 55.99 | 0.97 | 0.973 |  |  | 
COc1ccc2nc3cc(Cl)ccc3c(NCCO)c2c1.Cl [TCMDC-124272] | 0.404 | 15.7 |  |  | 66.85 | 79.62 |  | 0.843 | 15.67 | 1 (key: 1: YES; 0: NO) | 0.84
Cc1ccc2[nH]c(C)c(Br)c(=O)c2c1 [TCMDC-124347] | 3.82 | 100 | 100.00 | 1 (1: YES) | 68.86 | 49.90 | 2.45 | 2.45 |  |  | 
CC(=O)Nc1ccc(Nc2c3ccccc3nc3ccccc23)cc1 [TCMDC-124356] | 1.09 | 14.1 | 14.13 | 1 (1: YES) | 62.81 | 63.52 | 0.6 | 0.598 |  |  | 
CCn1c(C)cc(C=C2SC(=Nc3ccccc3)NC2=O)c1C [TCMDC-124456] | 1.7 | 97.3 | 97.27 | 1 (1: YES) | 41.94 | 67.52 | 1.01 | 1 |  |  | 
COc1ccc(C=C2SC(=N)N(c3ccccc3OC)C2=O)cc1 [TCMDC-124486] | 0.343 | 24.6 | 24.55 | 1 (1: YES) | 113.35 | 91.87 | 0.68 | 0.682 |  |  | 
Cc1cc2nc(/N=C(\N)NC(=O)NC3CCCCC3)nc(C)c2cc1C [TCMDC-124528] | 0.396 | 8.51 |  |  | 53.37 | 63.38 |  | 0.846 | 8.51 | 1 (key: 1: YES; 0: NO) | 0.85
CCc1cc2c(Sc3nc4ccccc4[nH]3)ncnc2s1 [TCMDC-124553] | 1.76 | 100 | 100.00 | 1 (1: YES) | 56.26 | 84.90 | 1 | 0.998 |  |  | 
Cc1ccc2nc(/N=C(\N)NC(=O)NC3CCCCC3)nc(C)c2c1 [TCMDC-124557] | 4.68 | 57.5 |  |  | 85.28 | 75.31 |  | 1.75 | 57.54 | 1 (key: 1: YES; 0: NO) | 1.75
COc1cccc(C=Cc2nc(=O)c3ccccc3o2)c1OC [TCMDC-124577] | 0.146 | 100 |  |  | 107.06 | 83.20 |  | 0.049 | 100.00 | 1 (key: 1: YES; 0: NO) | 0.05
c1ccc(CCNc2ncnc3c2[nH]c2ccccc23)cc1 [TCMDC-124578] | 0.27 | 10.6 | 10.59 | 1 (1: YES) | 104.22 | 87.03 | 0.37 | 0.368 |  |  | 
O=C(c1cc(-c2ccco2)[nH]n1)N1CCN(S(=O)(=O)c2ccc(Cl)cc2)CC1 [TCMDC-124698] | 0.563 | 100 |  |  | 67.42 | 51.92 |  | 1.12 | 100.00 | 1 (key: 1: YES; 0: NO) | 1.12
O=C(c1cc(-c2ccco2)[nH]n1)N1CCN(S(=O)(=O)c2ccc(Br)cc2)CC1 [TCMDC-124699] | 0.178 | 100 |  |  | 66.14 | 59.38 |  | 1.02 | 100.00 | 1 (key: 1: YES; 0: NO) | 
O=C(c1cc(-c2cccs2)[nH]n1)N1CCN(S(=O)(=O)c2ccc(Cl)cc2)CC1 [TCMDC-124702] | 0.027 | 42.2 |  |  | 58.15 | 68.92 |  | 4.34 | 42.17 | 0 (key: 1: YES; 0: NO) | 4.34
CCn1c(CN2CCC(C)CC2)nc2cc(NC(=O)c3cccs3)ccc21 [TCMDC-124730] | 0.182 | 75.9 | 75.86 | 1 (1: YES) | 78.95 | 101.97 |  | 0.35 |  |  | 
COc1cc(OC)c(NC(=O)C2c3ccccc3C(=O)N(CC(C)C)C2c2cccs2)cc1Cl (stereo not shown) [TCMDC-124760] | 0.108 | 100 | 100.00 | 1 (1: YES) | 44.76 | 67.88 | 8.61 | 8.61 |  |  | 
